Measured values from the supplement of paper PMC10307832.

Columns and labels:
Assay in all cases: relative viability (nuclei count vs DMSO), 5 days (fraction); higher = more cells survive
[1] = compound: O=c1ncccn1[C@@H]1O[C@H](CO)[C@@H](O)[C@H]1O [Zebularine] + CCNC(=O)c1noc(-c2cc(C(C)C)c(O)cc2O)c1-c1ccc(CN2CCOCC2)cc1 [Luminespib] (partner 0.01 µM)
Procedure, shortened: (§1)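 For relative viability, nuclei counts in treated wells were divided by those in vehicle wells. Lung cancer cell lines had been pin-tool dosed in 1536-well plates the day after seeding and cultured for 5 days, then fixed and stained in one step (final 0.05% Triton X-100, 1% formaldehyde, 1 ug/ml Hoechst) and imaged at 4×. Doses were one drug alone or a fixed anchor-drug dose plus five library-drug doses (not always all listed) in √10 steps, and values are duplicate-plate medians.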

[2] = compound: O=c1ncccn1[C@@H]1O[C@H](CO)[C@@H](O)[C@H]1O [Zebularine] + Nc1ncn([C@H]2C[C@H](O)[C@@H](CO)O2)c(=O)n1 [Decitabine] (partner 2 µM)
Procedure, shortened: as §1

[3] = compound: CC(C)CCN1c2nc(Nc3cc(F)c(O)c(F)c3)ncc2N(C)C(=O)C1C [BI-D1870] + Cc1nc(Nc2ncc(C(=O)Nc3c(C)cccc3Cl)s2)cc(N2CCN(CCO)CC2)n1 [Dasatinib] (partner 0.075 µM)
Procedure, shortened: as §1

[4] = compound: O=c1ncccn1[C@@H]1O[C@H](CO)[C@@H](O)[C@H]1O [Zebularine] + Cc1nc(NC(=O)N2CCC[C@H]2C(N)=O)sc1-c1ccnc(C(C)(C)C(F)(F)F)c1 [Alpelisib] (partner 2 µM)
Procedure, shortened: as §1

Cell Line: UMC-11
- relative viability ([1]; first compound 1 µM): 1.06
- relative viability ([1]; first compound 3.162 µM): 0.996
- relative viability ([1]; first compound 10 µM): 0.686
- relative viability ([1]; first compound 31.62 µM): 0.62
- relative viability ([1]; first compound 100 µM): 0.316
- relative viability ([2]; first compound 1 µM): 0.557
- relative viability ([2]; first compound 3.162 µM): 0.604
- relative viability ([2]; first compound 10 µM): 0.589
- relative viability ([2]; first compound 31.62 µM): 0.586
- relative viability ([2]; first compound 100 µM): 0.527
- relative viability ([3]; first compound 0.04 µM): 0.579
- relative viability ([3]; first compound 0.1265 µM): 0.454
- relative viability ([3]; first compound 0.4 µM): 0.481
- relative viability ([3]; first compound 1.265 µM): 0.393
- relative viability ([3]; first compound 4 µM): 0.142
- relative viability ([4]; first compound 1 µM): 1.08
- relative viability ([4]; first compound 3.162 µM): 0.958
- relative viability ([4]; first compound 10 µM): 0.419
- relative viability ([4]; first compound 31.62 µM): 0.789
- relative viability ([4]; first compound 100 µM): 0.419
